Counter-ions that a name gives are not always drawn.
Molecular target: T1, canine TRPM8 (Canis lupus familiaris, UniProt Q1A7N1)
T1 construct: expressed in transfected cells
Assay: In vitro canine TRPM8 functional assay (icilin-induced intracellular Ca2+, FLIPR/FDSS);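 further: intracellular Ca2+ tracked with a Ca2+-sensitive fluorescent dye, compound applied 5 min before icilin was added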
Format: cell-based
Settings: HEK293 cells stably expressing canine TRPM8; for inhibition at 0.2 µM: 0.200 μM compound, icilin challenge (~80% maximal response), read-out: % Inh. @ 0.200 μM; for IC50: icilin challenge, eight-point dose-response

T1 sequence (Q1A7N1 1-1104): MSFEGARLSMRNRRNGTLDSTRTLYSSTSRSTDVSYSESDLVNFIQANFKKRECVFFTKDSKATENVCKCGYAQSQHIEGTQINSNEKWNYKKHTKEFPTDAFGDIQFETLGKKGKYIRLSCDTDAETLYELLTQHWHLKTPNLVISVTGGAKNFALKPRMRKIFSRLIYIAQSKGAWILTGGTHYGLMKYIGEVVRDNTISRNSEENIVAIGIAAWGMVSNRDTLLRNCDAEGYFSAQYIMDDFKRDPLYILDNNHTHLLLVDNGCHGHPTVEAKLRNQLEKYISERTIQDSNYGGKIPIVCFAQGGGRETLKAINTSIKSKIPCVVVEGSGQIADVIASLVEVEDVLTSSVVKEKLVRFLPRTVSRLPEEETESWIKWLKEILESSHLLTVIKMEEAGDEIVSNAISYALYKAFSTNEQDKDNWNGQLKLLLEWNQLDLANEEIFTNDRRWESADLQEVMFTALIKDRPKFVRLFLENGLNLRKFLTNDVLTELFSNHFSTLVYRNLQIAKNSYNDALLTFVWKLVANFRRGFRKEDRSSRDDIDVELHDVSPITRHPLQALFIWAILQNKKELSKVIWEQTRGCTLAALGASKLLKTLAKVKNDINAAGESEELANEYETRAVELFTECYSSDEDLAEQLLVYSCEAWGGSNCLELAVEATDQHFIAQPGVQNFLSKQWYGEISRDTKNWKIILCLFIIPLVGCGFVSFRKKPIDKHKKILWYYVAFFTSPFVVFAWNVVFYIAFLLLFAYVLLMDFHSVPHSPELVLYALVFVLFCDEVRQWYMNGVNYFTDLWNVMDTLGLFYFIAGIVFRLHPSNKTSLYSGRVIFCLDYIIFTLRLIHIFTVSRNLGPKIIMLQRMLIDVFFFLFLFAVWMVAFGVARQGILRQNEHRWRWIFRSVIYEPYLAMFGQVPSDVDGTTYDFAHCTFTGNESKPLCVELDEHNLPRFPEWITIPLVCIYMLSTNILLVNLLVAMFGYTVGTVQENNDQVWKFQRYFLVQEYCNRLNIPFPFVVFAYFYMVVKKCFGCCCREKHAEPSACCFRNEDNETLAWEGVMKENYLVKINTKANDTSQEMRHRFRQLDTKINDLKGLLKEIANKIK

SMILES	inhibition at 0.2 µM	IC50
FC(F)(F)Oc1ccccc1-c1ccc2nc(C3=NC4(CCCCC4)CO3)[nH]c2c1 [Cpd 2, 2-[5-(2-Trifluoromethoxy-phenyl)-1H-benzimidazol-2-yl]-3-oxa-1-aza-spiro[4.5]dec-1-ene]	106%	7 nM
FC(F)(F)Oc1ccccc1-c1ccc2[nH]c(C3=NCC4(CCCCC4)O3)nc2c1 [Cpd 3, 2-[5-(2-Trifluoromethoxy-phenyl)-1H-benzimidazol-2-yl]-1-oxa-3-aza-spiro[4.5]dec-2-ene]	60%	–
FC(F)(F)c1ccccc1-c1ccc2[nH]c(C3=NCC4(CCCCC4)O3)nc2c1 [Cpd 4, 2-[5-(2-Trifluoromethyl-phenyl)-1H-benzimidazol-2-yl]-1-oxa-3-aza-spiro[4.5]dec-2-ene]	84%	–
FC(F)(F)c1ccccc1-c1ccc2[nH]c(C3=NOC4(CCOCC4)C3)nc2c1 [Cpd 9, 3-[5-(2-Trifluoromethylphenyl)-1H-benzimidazol-2-yl]-1,8-dioxa-2-aza-spiro[4.5]dec-2-ene]	101%	–
Fc1cc(-c2ccccc2C(F)(F)F)cc2nc(C3=NOC4(CCCCC4)C3)[nH]c12 [Cpd 14, 3-[7-Fluoro-5-(2-trifluoromethyl-phenyl)-1H-benzimidazol-2-yl]-1-oxa-2-aza-spiro[4.5]dec-2-ene hydrochloride]	102%	–
OCCCc1cc(-c2ccccc2C(F)(F)F)cc2nc(C3=NOC4(CCCCC4)C3)[nH]c12 [Cpd 22, 3-[2-(1-Oxa-2-aza-spiro[4.5]dec-2-en-3-yl)-6-(2-trifluoromethylphenyl)-3H-benzimidazol-4-yl]-propan-1-ol hydrochloride]	103%	–
Fc1ccccc1-c1ccc2[nH]c(C3=NOC4(CCCCC4)C3)nc2c1 [Cpd 23, 3-[5-(2-Fluoro-phenyl)-1H-benzimidazol-2-yl]-1-oxa-2-aza-spiro[4.5]dec-2-ene trifluoroacetic acid salt]	103%	–
Fc1cccc(F)c1-c1ccc2[nH]c(C3=NOC4(CCCCC4)C3)nc2c1 [Cpd 26, 3-[5-(2,6-Difluoro-phenyl)-1H-benzimidazol-2-yl]-1-oxa-2-aza-spiro[4.5]dec-2-ene trifluoroacetic acid salt]	100%	–
FC(F)(F)c1ccccc1-c1ccc2[nH]c(C3=NC4(CCOCC4)CO3)nc2c1 [Cpd 29, 2-[5-(2-Trifluoromethyl-phenyl)-1H-benzimidazol-2-yl]-3,8-dioxa-1-aza-spiro[4.5]dec-1-ene]	71%	100 nM
Fc1ccccc1-c1ccc2[nH]c(C3=NOC4(CCOCC4)C3)nc2c1 [Cpd 31, 3-[5-(2-Fluoro-phenyl)-1H-benzimidazol-2-yl]-1,8-dioxa-2-aza-spiro[4.5]dec-2-ene hydrochloride]	99%	13.4 nM
CC1(C)CCC2(CC1)CC(c1nc3cc(-c4ccccc4C(F)(F)F)ccc3[nH]1)=NO2 [Cpd 36, 8,8-Dimethyl-3-[5-(2-trifluoromethyl-phenyl)-1H-benzimidazol-2-yl]-1-oxa-2-aza-spiro[4.5]dec-2-ene hydrochloride]	99%	12.5 nM
Fc1cccc(F)c1-c1ccc2[nH]c(C3=NOC4(CCOCC4)C3)nc2c1 [Cpd 38, 3-[5-(2,6-Difluoro-phenyl)-1H-benzimidazol-2-yl]-1,8-dioxa-2-aza-spiro[4.5]dec-2-ene hydrochloride]	99%	8.3 nM
Clc1ccccc1-c1ccc2[nH]c(C3=NOC4(CCOCC4)C3)nc2c1 [Cpd 40, 3-[5-(2-Chloro-phenyl)-1H-benzimidazol-2-yl]-1,8-dioxa-2-aza-spiro[4.5]dec-2-ene hydrochloride]	98%	11 nM
CC1(C)CCC2(CC1)CC(c1nc3cc(-c4ccccc4C(F)(F)F)cc(Cl)c3[nH]1)=NO2 [Cpd 41, 3-[7-Chloro-5-(2-trifluoromethyl-phenyl)-1H-benzimidazol-2-yl]-8,8-dimethyl-1-oxa-2-aza-spiro[4.5]dec-2-ene hydrochloride]	92%	50.2 nM
Clc1ccccc1-c1ccc2[nH]c(C3=NOC4(CCCCC4)C3)nc2c1 [Cpd 45, 3-[5-(2-Chlorophenyl)-1H-benzimidazol-2-yl]-1-oxa-2-aza-spiro[4.5]dec-2-ene hydrochloride]	97%	–
Cc1cc(-c2ccccc2F)cc2nc(C3=NOC4(CCCCC4)C3)[nH]c12 [Cpd 47, 3-[7-Methyl-5-(2-fluorophenyl)-1H-benzimidazol-2-yl]-1-oxa-2-aza-spiro[4.5]dec-2-ene hydrochloride]	97%	6.9 nM

More lines, now with the values ahead:

inhibition at 0.2 µM	IC50	SMILES
102%	1.5 nM	FC(F)(F)Cc1ccccc1-c1ccc2[nH]c(C3=NOC4(CCCCC4)C3)nc2c1 [Cpd 11, 3-{5-[2-(2,2,2-Trifluoroethyl)-phenyl]-1H-benzimidazol-2-yl}-1-oxa-2-aza-spiro[4.5]dec-2-ene]
102%	3.9 nM	CC1C(c2nc3cc(-c4ccccc4C(F)(F)F)ccc3[nH]2)=NOC12CCCCC2 (stereo not shown) [Cpd 15, 4-Methyl-3-[5-(2-trifluoromethyl-phenyl)-1H-benzimidazol-2-yl]-1-oxa-2-aza-spiro[4.5]dec-2-ene hydrochloride]
103%	1.8 nM	Cc1cc(-c2ccccc2OC(F)F)cc2nc(C3=NOC4(CCCCC4)C3)[nH]c12 [Cpd 20, 3-[5-(2-Difluoromethoxyphenyl)-7-methyl-1H-benzimidazol-2-yl]-1-oxa-2-aza-spiro[4.5]dec-2-ene hydrochloride]
103%	5.6 nM	Cc1c(-c2ccccc2C(F)(F)F)ccc2[nH]c(C3=NOC4(CCCCC4)C3)nc12 [Cpd 24, 3-[4-Methyl-5-(2-trifluoromethyl-phenyl)-1H-benzimidazol-2-yl]-1-oxa-2-aza-spiro[4.5]dec-2-ene hydrochloride]
100%	0.8 nM	OC/C=C\c1cc(-c2ccccc2C(F)(F)F)cc2nc(C3=NOC4(CCCCC4)C3)[nH]c12 [Cpd 25, 3-[2-(1-Oxa-2-aza-spiro[4.5]dec-2-en-3-yl)-6-(2-trifluoromethylphenyl)-3H-benzimidazol-4-yl]-prop-2-en-1-ol]
100%	4.9 nM	Cc1cc(-c2ccccc2C(F)(F)F)cc2nc(C3=NOC4(CCOCC4)C3)[nH]c12 [Cpd 32, 3-[7-Methyl-5-(2-trifluoromethyl-phenyl)-1H-benzimidazol-2-yl]-1,8-dioxa-2-aza-spiro[4.5]dec-2-ene hydrochloride]
100%	1.7 nM	FC(F)(F)c1ccccc1-c1cc(Br)c2[nH]c(C3=NOC4(CCOCC4)C3)nc2c1 [Cpd 33, 3-[7-Bromo-5-(2-trifluoromethyl-phenyl)-1H-benzimidazol-2-yl]-1,8-dioxa-2-aza-spiro[4.5]dec-2-ene hydrochloride]
100%	5.2 nM	N#Cc1cc(-c2ccccc2C(F)(F)F)cc2nc(C3=NOC4(CCOCC4)C3)[nH]c12 [Cpd 35, 2-(1,8-Dioxa-2-aza-spiro[4.5]dec-2-en-3-yl)-6-(2-trifluoromethyl-phenyl)-3H-benzimidazole-4-carbonitrile hydrochloride]
99%	5.2 nM	CC1(C)CCC2(CC1)CC(c1nc3cc(-c4ccccc4Cl)ccc3[nH]1)=NO2 [Cpd 37, 3-[5-(Chloro-phenyl)-1H-benzimidazol-2-yl]-8,8-dimethyl-1-oxa-2-aza-spiro[4.5]dec-2-ene hydrochloride]
99%	6.3 nM	CC1(C)CCC2(CC1)CC(c1nc3cc(-c4ccccc4C(F)(F)F)cc(C(F)(F)F)c3[nH]1)=NO2 [Cpd 39, 8,8-Dimethyl-3-[7-trifluoromethyl-5-(2-trifluoromethyl-phenyl)-1H-benzimidazol-2-yl]-1-oxa-2-aza-spiro[4.5]dec-2-ene hydrochloride]
99%	1.7 nM	CC(C)(O)CCc1cc(-c2ccccc2C(F)(F)F)cc2nc(C3=NOC4(CCCCC4)C3)[nH]c12 [Cpd 43, 2-Methyl-4-[2-(1-oxa-2-aza-spiro[4.5]dec-2-en-3-yl)-6-(2-trifluoromethylphenyl)-3H-benzimidazol-4-yl]-butan-2-ol]
100%	2.1 nM	Fc1cccc(F)c1-c1cc(Cl)c2[nH]c(C3=NOC4(CCCCC4)C3)nc2c1 [Cpd 44, 3-[7-Chloro-5-(2,6-difluorophenyl)-1H-benzimidazol-2-yl]-1-oxa-2-aza-spiro[4.5]dec-2-ene methanesulfonate]
97%	1.8 nM	Cc1cc(-c2ccccc2C(F)(F)F)cc2nc(C3=NOC4(CCCCC4)C3)[nH]c12 [Cpd 46, 3-[7-Methyl-5-(2-trifluoromethylphenyl)-1H-benzimidazol-2-yl]-1-oxa-2-aza-spiro[4.5]dec-2-ene hydrochloride]
97%	3.9 nM	Cc1cc(-c2c(F)cccc2F)cc2nc(C3=NOC4(CCCCC4)C3)[nH]c12 [Cpd 48, 3-[7-Methyl-5-(2,6-difluorophenyl)-1H-benzimidazol-2-yl]-1-oxa-2-aza-spiro[4.5]dec-2-ene hydrochloride]
101%	6.1 nM	Fc1ccccc1-c1cc(Cl)c2[nH]c(C3=NOC4(CCCCC4)C3)nc2c1 [Cpd 49, 3-[7-Chloro-5-(2-fluorophenyl)-1H-benzimidazol-2-yl]-1-oxa-2-aza-spiro[4.5]dec-2-ene methanesulfonate]
101%	1.9 nM	FC(F)(F)Oc1ccccc1-c1cc(Cl)c2[nH]c(C3=NOC4(CCCCC4)C3)nc2c1 [Cpd 50, 3-[7-Chloro-5-(2-trifluoromethoxyphenyl)-1H-benzimidazol-2-yl]-1-oxa-2-aza-spiro[4.5]dec-2-ene methanesulfonate]
97%	1 nM	COCCCc1cc(-c2ccccc2C(F)(F)F)cc2nc(C3=NOC4(CCCCC4)C3)[nH]c12 [Cpd 52, 3-[7-(3-Methoxy-propyl)-5-(2-trifluoromethylphenyl)-1H-benzimidazol-2-yl]-1-oxa-2-aza-spiro[4.5]dec-2-ene hydrochloride]

Source: patent US8232409B2, “Heterocyclic benzimidazoles as TRPM8 modulators” (Janssen Pharmaceutica N.V., priority 2008, dated 2012)
